For one data set, the system named is BEL-7404 xenograft. Conditions: for Body weight (start) / Tumor volume (start) / Average tumor weight (mean ± SD g) / Body weight (end) / RBW (%) (end) / Tumor volume (end): BEL-7404 model; for Average tumor weight (mean ± SD g) / Body weight (end) / RBW (%) (end) / Tumor volume (end): day 18. Here is the method: In vivo anticancer efficacy of chiral platinum(II) complex 6 was evaluated using BEL-7404 and BEL-7402 xenograft mouse models. BEL-7404 and BEL-7402 cells were injected into nude mice. The mice were randomized into the control group, complex 6-treated group, and the positive control group (n = 6/group). When the volume of tumor was about 80 mm^3, complex 6 was given at a high (8 mg/kg) and low (4 mg/kg) dosage daily for 18 days, 5-FU (20 mg/kg every two days) and Cisplatin (2 mg/kg every two days) were used as a positive control in the BEL-7404 and BEL-7402 xenograft model, respectively.
To evaluate the vivo anticancer efficacy of complex 6, BEL-7404 and BEL-7402 xenograft mouse models (BALB/c nude mice, female for BEL-7404 model, 17–20 g, 6–7 weeks old; male for BEL-7402 model, 18-21 g, 6–7 weeks old) were used. Furthermore, animal used, maximum tolerated dose (MTD) analysis, acute toxicity studies and antitumor activity toward BEL-7404 and BEL-7402 models in vivo of complex 6, was similar to Chen reported.
H21T (3.5 pmol; 5’-G [T AG ] -3’), primer TS (18 pmol; tumor tissue were cut into about 1.5 mm3 small pieces, and […]
5’-[…]-3’), KCl (63 mM), then transplanted into the right flank of nude mice. When EGTA (1 mM), MgCl (1.5 mM), Tween-20 (0.005%), the average tumors reach a volume of about 80 mm3, the […]
primer NT (7.5 pmol; 5’-[…]-3’), mice were randomized into 4 groups (n=6), received the […]
TSNT internal control (0.01 amol; 5’-[…] following treatments: (a) control, received saline solvent; […]
-3’), primer (b) complex 6 at doses of 8.0 mg/kg daily (dissolve in […]
Cxext (22.5 pmol; 5’-[…] saline, iv); (c) complex 6 at doses of 4.0 mg/kg daily; […]
[…]-3’), Taq DNA polymerase (2.5 U), and (d) in BEL-7404 model, 5-fluorouracil (5-Fu) as positive telomerase (100 ng). Complexes or/and distilled water control at 20 mg/kg per two days (dissolve in saline, iv); was added ([…]). PCR was performed in an Eppendorf in BEL-7402 model, cisplatin as positive control at 2 mg/ Master cycler equipped with a hot lid and incubated for kg per two days (dissolve in saline, iv).
30.0 min at 30 °C, followed by 92 °C 30 s, 52 °C 30 s, The tumor volumes and body weight was monitored and 72°C 30 s for 30.0 cycles. After amplification, 8.0 every 3 days, The tumor volumes were estimated by […] loading buffer (5×TBE buffer, 0.2% xylene cyanol, measuring the two dimensions of the tumors using caliper and 0.2% bromophenol blue ) were added to the reaction. and calculated by the formula 1 [1, 6, 14]:
An […] of aliquot was loaded onto a nondenaturing V = (length × width2)/2(1) acrylamide gel (19:1, 16%) in 1×TBE buffer and resolved at 200.0 V for 1.0 h. Gels were fixed and then stained with On day 18, the mice were sacrificed, and tumor AgNO3 [8–11]. tissue were dissected out and weighted, tumor growth inhibition rate calculated using formulas 2 and 3 [1, 6,
In order to verify whether complexes 4–6 can TGI (%) = (ΔVc − ΔVt)/ΔVc×100%(2) directly regulate c-myc promoter (Pu27) and the IR(%) = (Wc − Wt)/Wc×100%(3) expression of hTRET in BEL-7404 cells, consequently Where ΔVt = tumor volumefinal −tumor volumeinitial inhibiting the telomerase function, we constructed EGFP for compound treated group, ΔVc=tumor volumefinal − and c-myc gene vectors according to those illustrated tumor volumeinitial for vehicle control group; Wt and Wc in Chalfie, Chen and He previous work. The detailed mean the average tumor weight of complex-treated and procedures for the construct of gene (c-myc and EGFP vehicle controlled group respectively. genes) vectors, and the method of transfection assays REFERENCES have been reported by Chalfie, Chen and He [1, 6, 9, 12,

In a further data set the test system is mice. Kind of data set: In vivo toxicity of multiple doses. Conditions: monitored another week. The method, then:
We then assessed the in vivo toxicity of multiple doses of complex 6. The mice was treated with complex 6 at 7.8 mg/kg daily or per two day by iv injection up to 7 days, and then monitored for another week.

Where two headings read alike, the source gives them in different places.

As for cis-[PtCl2(S-(–)-FOA)] [complex 6], in the data set with BEL-7404 xenograft (BEL-7404 and BEL-7402 models, 4 and 8 mg/kg daily), the “discomfort / side effects in diet intake or overall body weight” value was “did not display any discomfort or discernible side effects”. In addition, in the data set on BEL-7404 xenograft (6 4.0 mg/kg daily iv), the “Body weight (start)” value came out at 19.5 ± 1.6 g, the “Tumor volume (start)” value was 75.81±19.95 mm3, the “Average tumor weight (mean ± SD g)” value stood at 0.67 ± 0.08 g and the “Body weight (end)” value turned out to be 17.2 ± 1.7 g. Besides, in the data set on BEL-7404 xenograft (6 4.0 mg/kg daily iv), the “RBW (%) (end)” value is reported as 87.9±4.2% and the “Tumor volume (end)” value is 782.94±73.43 mm3. Also, in the data set on BEL-7404 xenograft (6 8.0 mg/kg daily iv), the “Body weight (start)” value was found to be 19.5 ± 1.2 g, the “Tumor volume (start)” value turned out to be 73.70±16.66 mm3, the “Average tumor weight (mean ± SD g)” value came to 0.51 ± 0.19 g and the “Body weight (end)” value came out at 17.4 ± 0.8 g. For the same substance, in the data set on BEL-7404 xenograft (6 8.0 mg/kg daily iv), the “RBW (%) (end)” value stood at 89.2±2.5% and the “Tumor volume (end)” value stood at 659.96±253.88 mm3. Further, in the data set with mice (7.8 mg/kg daily iv up to 7 days), the “safety of multiple doses” value is listed as “safe for mice”. For the same substance, in the data set on mice (7.8 mg/kg daily or per two day iv up to 7 days), the body weight change result is “Moderate body weight increase”.

The record behind these values is PMC5617480 (Oncotarget, 2017).
